# Read-outs that look alike come from different tables or passages of the source.
# What was measured:
# [1] = Coelenterazine 400a stock solution stability (luminescence with CHO cells expressing Rluc, BRETCount); assay type: physicochemical
# Procedure: Coelenterazine stability: Three different stock solutions of coelenterazine 400a (dissolved in anhydrous ethanol), prepared at different times, were tested using the BRETCount. CHO cells were transiently transfected with pcDNA3.1-Rluc only. Forty-eight hours later, 50 000 cells in complete BRET buffer were distributed in wells (96-well white Optiplate). Coelenterazine 400a from the various stocks were then added to start the bioluminescent reaction. […] A reduction of 22% is observed for the older stock (made Feb. 19, 1999) compared to a stock freshly made (Aug. 6, 1999). […].
# FIG. 9 represents the same bioluminescent reactions as in FIG. 8 but at t=5 min after addition of the coelenterazines. In this case no significant difference was observed between the various coelenterazine stocks.
# Coel400a stored for a longer period of time (6 months), does show a loss of potential but it remains acceptable and workable for the BRET system.
# [2] = system: HeLa cells transfected with the GFP1:Caspase-3:Rluc sensor; assay: BRET apoptosis sensor assay; assay type: cell-based; settings: staurosporine 1 μM, 5 hours
# Procedure: PGFP1:caspase-3:Rluc DNAs and the original plasmid pGFP1::Rluc (without the caspase-3 site) were transfected into HeLa cell using LipofectAMINE (BRL/Gibco-Life technologies) in 100 mm dishes and 8 μg of plasmid DNA as described in the manufacturer's protocol. Twenty-four hours post-transfection transfected cells were harvested and distributed into 96-well microtiterplate (white Optiplate from Packard) at a density of 30 000 cells per well. […] Cells were incubated for 5 hours at 37° C. After this period, 50 μl of BRET buffer (PBS Ca^2+/Mg^2++glucose without aprotinin) and 50 μl of DeepBlueC (20 μM) were added to start the bioluminescence reaction. Total assay volume was 200 μl. Light emissions were detected using the BRETCount (read length of 1 sec. for each filter, SPC mode, temperature 25° C.).
# V2 receptor = V2 receptor (Homo sapiens, UniProt P30518); settings: saturating dose, V2-Rluc + β-arrestin2-GFP, FIG. 22
# Procedure: The Rluc (BDP) was fused to the C-terminus of the GPCR and the GFP (FAM) was fused to the C-terminus of β-arrestin. Therefore, shortly after ligand binding (5-30 minutes) the BRET ratio should increase due to binding of β-arrestin to the GPCR, which brings the GFP in proximity to Rluc.
# HEK293 cell line were transiently transfected using the DNA constructs and LipofectAMINE™ 2000 (BRL/Gibco) in 100 mm dishes as described in the manufacturer's protocol. […] Bioluminescent reactions were analysed using the BRETCount with appropriate filters.
# Transfected cells were added (50 000 cells (in BRET buffer) per well) to the wells in white 96-well plates (Optiplate, Packard Instrument). […] In the other half, BRET buffer, alone, was added. Cells were then incubated for 10-20 minutes at room temperature before adding the coel400a. The analysis was performed at 25° C., integration time 2 sec per wavelength in luminescence mode. The filters used were: for Rluc emission 410DF80 (from Omega); for GFP D515/50M (from Chroma). Coel400a, at a working concentration of 40 μM (final 5 μM), was added to each well to start the bioluminescent reaction. The final reaction volume was 50 μl. Assays were done in quadruplicate.
# For all fusion constructs, a 6 amino acid linker was inserted, between the Rluc or GFP and the receptor (β2, β3 or V2) or β-arrestin2. […]
# V2-R = V2-R (Homo sapiens, UniProt P30518); settings: AVP 50 nM, 20 minutes
# Procedure: BRET assays: HEK293 cell line were transiently co-transfected using the donor and acceptor fusion construct DNAs and LipofectAMINE 2000 (Life Technologies) in 100 mm dishes as described in the manufacturer's protocol. For the transfections, a DNA ratio of 4 μg:46 μg (donor fusion construct: acceptor fusion construct) was used. The donor fusion constructs were the V2-R:Rluc (h) fusion constructs and the acceptor fusion construct was either the pcDNA3.1hyg/GFP1:β-arrestin2 or the pcDNA3.1hyg/β-arrestin2:GFP1. […] Fifty thousand transfected cells per well were added to white 96-well plates (Optiplate, Packard Instrument Company). […] Cells were then incubated for 20 minutes at room temperature in a total volume of 37.5 μl. After the incubation period, 12.5 μl of DeepBlueC at 20 μM (also called Coel400a) was added in each well (final concentration of 5 μM). Final assay volume was 50 μl. Donor and acceptor light outputs were quantified with the Fusion microtiterplate analyzer (Packard Instrument Company) using the following instrument setting:
# Read length: 1 sec per well per filter.
# Results represent the mean+/−SEM of quadruplicate wells. […] In all cases, background levels (wells with only DBC in PBS+) were subtracted.
compound,measurement,setting,value
"O=c1c(Cc2ccccc2)nc2c(Cc3ccccc3)[nH]c(-c3ccccc3)cn1-2 [Coelenterazine 400a, phenylcoelenterazine]",reduction of luminescent signal immediately after addition of the substrate,"[1]; stock in anhydrous ethanol made Feb. 19, 1999 compared to stock freshly made (Aug. 6, 1999)",22%
same,luminescence reduction immediately after addition of the substrate,"[1]; stock in anhydrous ethanol made Jul. 22, 1999 compared to stock freshly made (Aug. 6, 1999)",did not demonstrate significant luminescence reduction
CN[C@@H]1C[C@H]2O[C@@](C)([C@@H]1OC)n1c3ccccc3c3c4c(c5c6ccccc6n2c5c31)C(=O)NC4 [staurosporine],BRET ratio change (decrease),"[2]; cells transfected with pGFP1:caspase-3:Rluc, time zero",0.72 unit
same,change in BRET ratio,[2]; cells transfected with pGFP::Rluc (without the caspase-3 site),No change
Arg^8-vasopressin [AVP],BRET ratio in the presence of the agonist,V2 receptor,increased
same,BRET signal in presence of AVP,"V2-R; V2-R:Rluc + GFP1:β-arrestin2, 10 min after DeepBlueC",0.129
same,BRET signal in presence of AVP,"V2-R; V2-R:Rluc + β-arrestin2:GFP1, 10 min after DeepBlueC",0.087

# Source: patent US20030203404A1, “Bioluminescence resonance energy transfer( bret) system with broad spectral resolution between donor and acceptor emission wavelengths and its use” (priority 1999, published 2003)
